The values below come from publication PMC7449217, “The FDA-Approved Drug Nelfinavir Inhibits Lytic Cell-Free but Not Cell-Associated Nonlytic Transmission of Human Adenovirus” (Antimicrobial Agents and Chemotherapy, 2020).

Holding throughout (type): cell-based, human adenovirus
Data set [1] has as its system HAdV-C2-dE3B-GFP. Nature of the data set: microbe, parasite or virus in culture. The note with it: for EC50: Human adenovirus sp. On the procedure: (§1) Per 96-well plate, 15,000 A549 cells, 10,000 HeLa cells, 30,000 HBECs, 30,000 HCE cells, or 30,000 CMT-93 cells were seeded in 100 μl of the respective supplemented medium and allowed to settle for 1 h at room temperature (RT) prior to cell culture incubation at 37°C with 5% CO2 and 95% humidity. The following day, the medium was replaced with 50 μl of the respective virus stock dilution giving rise to 5 to 50 plaques per 96-well plate. Fifty microliters of nelfinavir to obtain a 0.1 to 50 μM final concentration or the DMSO solvent control was also added, both in supplemented medium. For each experiment, a noninfected, treated control was performed. For uphill plaque assays, the medium volume was increased to 150 μl with identical virus and drug concentrations. For wash-in/washout experiments, the virus was incubated on cells in supplemented medium for 1 h at 37°C, cells were washed with PBS, and a 100-μl drug dilution in supplemented medium was added. All experiments were performed in four technical replicates or as indicated. Cells were incubated under standard cell culture conditions. At the indicated times postinfection, the cells were fixed, and the nuclei were stained for 1 h at RT by the addition of 33 μl 16% (wt/vol) paraformaldehyde (PFA) and 4 μg/ml Hoechst 33342 (Sigma-Aldrich, St. Louis, MO, USA) in PBS. Cells were washed three times with PBS and stored in PBS supplemented with 0.02% N3 for infections with viruses harboring a GFP transgene. For wild-type (wt) viruses, cells were quenched in PBS supplemented with 50 mM NH4Cl, permeabilized using 0.2% (vol/vol) Triton X-100 in PBS, and blocked with 0.5% (wt/vol) bovine serum albumin (BSA) in PBS. Cells were incubated with 381.7 ng/ml mouse anti-HAdV hexon protein antibody (Mab8052; Sigma-Aldrich, St. Louis, MO, USA) and subsequently stained using 2 μg/ml goat anti-mouse-Alexa Fluor 594 (catalog number A21203 or A32742; Thermo Fisher Scientific, Waltham, MA, USA). Plates were imaged on either an IXM-XL or an IXM-C automated high-throughput fluorescence microscope (Molecular Devices, San Jose, CA, USA) using a 4× objective in wide-field mode. Hoechst staining was recorded in the 4′,6-diamidino-2-phenylindole (DAPI) channel, the fluorescein isothiocyanate (FITC)/GFP channel was acquired for viral GFP, and the tetramethyl rhodamine isothiocyanate (TRITC)/Texas Red channel was acquired for hexon immunofluorescence staining.
(§2) The infection phenotype for each well was quantified using Plaque2.0 ([101]). The number of plaques was determined based on the infection signal (viral GFP or hexon immunofluorescence staining). Nuclei stained with Hoechst were segmented by using CellProfiler ([178]). Infected nuclei were classified based on the median infection signal per nucleus in CellProfiler. Data were plotted, and the EC50 (infected and treated cells), the TC50 (noninfected, treated cells), as well as the corresponding standard errors (SE) were determined using curve fitting in GraphPad (version 8.1.2; GraphPad Software, Inc.) using three-parameter inhibitor concentration-versus-response nonlinear regression. The mean TI50 was calculated as the […] ratio of the means. The TI50 SE was calculated by error propagation.

The subject of data set [2] is HAdV-C2-dE3B-GFP. The experiment in a line: quantification of infectious progeny in the supernatant, titration on A549 cells. The note with it: 1.25 μM, 7 dpi, HAdV-C2-dE3B-GFP-infected A549 cells. On the procedure:
A549 cells were seeded at 480,000 cells per 6-well plate in full DMEM and infected at 1,100 PFU HAdV-C2-dE3B-GFP per well the next day. Following 1 h of warm incubation, the supernatant was removed, and cells were washed with PBS and detached by trypsin digestion. Infected cells were centrifuged and resuspended in fresh medium to remove any unbound input virus and seeded at 180,000 cells/12-well plate in medium supplemented with 1.25, 3, or 10 μM nelfinavir or equivalent amounts of the DMSO solvent control. At the indicated times postinfection, the supernatant was harvested and cleared by centrifugation. Two hundred microliters of PBS/well was added to the infected monolayer. Cells were disrupted by three freeze-thaw cycles, and freon extraction was performed. The supernatant and cell lysate were stored at 4°C until titration on naive A549 cells. PFA-fixed, Hoechst-stained cells were imaged at 44 hpi using a 4× objective (NA, 0.20) on an IXM-XL epifluorescence microscope (Molecular Devices, San Jose, CA, USA). GFP-positive infected cells were classified based on the median nuclear GFP intensity using automated image analysis by CellProfiler ([178]).
Four hundred eighty thousand A549 cells were seeded per 6-well dish, inoculated with 1,100 PFU HAdV-C2-dE3B-GFP/well for 1 h at 37°C, washed with PBS, and detached by trypsin digestion. […]

The test system of data set [3] is HAdV-C2-dE3B-GFP. Nature of the data set: fluorescence-based plaque-forming assay, HCE cells. The protocol: as §1, with “Cells were incubated with 381.7 ng/ml mouse anti-HAdV hexon protein antibody (Mab8052; Sigma-Aldrich, St. Louis, MO, USA) and subsequently stained using 2 μg/ml goat anti-mouse-Alexa Fluor 594 (catalog number A21203 or A32742; Thermo Fisher Scientific, Waltham, MA, USA).” left out
as §2, with “Nuclei stained with Hoechst were segmented by using CellProfiler ([178]). Infected nuclei were classified based on the median infection signal per nucleus in CellProfiler.” left out

In the next data set the test system is HAdV-A31. The experiment in a line: fluorescence-based plaque-forming assay, HCE cells. The note with it: HAdV-A31 in HCE. On the procedure: as §1, with “Cells were incubated with 381.7 ng/ml mouse anti-HAdV hexon protein antibody (Mab8052; Sigma-Aldrich, St. Louis, MO, USA) and subsequently stained using 2 μg/ml goat anti-mouse-Alexa Fluor 594 (catalog number A21203 or A32742; Thermo Fisher Scientific, Waltham, MA, USA).” left out
as §2, with “Nuclei stained with Hoechst were segmented by using CellProfiler ([178]). Infected nuclei were classified based on the median infection signal per nucleus in CellProfiler.” left out

Counter-ions that a name gives are not always drawn.

The term EC50 denotes the midpoint of the concentration-response curve. Turning to `Cc1c(O)cccc1C(=O)N[C@@H](CSc1ccccc1)[C@H](O)CN1C[C@H]2CCCC[C@H]2C[C@H]1C(=O)NC(C)(C)C` [Nelfinavir, Nelfinavir mesylate], the “TI50 (TC50/IC50)” value in the data set on HAdV-C2-dE3B-GFP [1] (HAdV-C2-dE3B-GFP in A549, 3 dpi, GFP) worked out at 66.80; in the data set with HAdV-C2-dE3B-GFP [1] (HAdV-C2-dE3B-GFP in A549, 3 dpi, GFP, listed as nelfinavir), 66.8; in the data set with HAdV-C2-dE3B-GFP [1] (HAdV-C2-dE3B-GFP in A549, 4 dpi, GFP), 29.43; with HAdV-C2-dE3B-GFP [1] (HAdV-C2-dE3B-GFP in A549, 4 dpi, Hexon), 29.87; with HAdV-C2-dE3B-GFP [3] (HAdV-C2-dE3B-GFP in HCE, 5 dpi, GFP), 54.04; with HAdV-A31 (8 dpi, Hexon), 1.08. Further, the EC50 turned out to be 0.22 µM in the data set on HAdV-C2-dE3B-GFP [1] (A549, HAdV-C2-dE3B-GFP in A549, fixation 3 dpi (72 hpi), read-out GFP, plaque numbers); 0.44 µM in the data set with HAdV-C2-dE3B-GFP [1] (A549, HAdV-C2-dE3B-GFP in A549, fixation 4 dpi, read-out GFP, plaque numbers); 0.43 µM in the data set on HAdV-C2-dE3B-GFP [1] (A549, HAdV-C2-dE3B-GFP in A549, fixation 4 dpi, read-out Hexon, plaque numbers); 0.37 µM in the data set on HAdV-C2-dE3B-GFP [1] (A549, read-out: EC50 of fluorescent-plaque formation, HAdV-C2-dE3B-GFP, A549 cells, 82 hpi, plaque numbers); 0.55 µM in the data set on HAdV-C2-dE3B-GFP [3] (Human adenovirus sp., HCE); 18.1 µM with HAdV-A31 (Human adenovirus sp., fixation 8 dpi, read-out Hexon, plaque numbers). In addition, the “median therapeutic index (TI50)” value in the data set on HAdV-C2-dE3B-GFP [1] (ratio TC50 (nuclei) / EC50 (plaques), A549 cells, 82 hpi) was 27.1. Further, in the data set on HAdV-C2-dE3B-GFP [2], the “reduction of total yield of infectious particles in the supernatant” value was 3 orders of magnitude.
